Literature values, collected in patent publication US20140271893A1 (McNeil-PPC, Inc., priority 2013, published 2014).

Tests used:
[1] = therapeutic dose
[2] = 30 mg dose administered orally over eight hours

Row | Compound | fraction of dose excreted unchanged in the urine [1] | metabolized to m-hydroxy-phenylglycol-sulfate, % of the dose [2] [%] | metabolized to m-hydroxymandelic acid, % of the dose [2] [%] | metabolized to phenylephrine-glucuronide, % of the dose [2] [%] | metabolized to phenylephrine-sulfate, % of the dose [2] [%]
1 | CC(=O)Nc1ccc(O)cc1 [acetaminophen] | Less than 9% | – | – | – | –
2 | CNC[C@H](O)c1cccc(O)c1 [phenylephrine, (R)-1-(3-hydroxyphenyl)-2-methylaminoethanol] | – | 6 | 30 | 12 | 47
